Test results published in the METLIN SMRT retention time set (Domingo-Almenara et al. 2019).

Assay: gradient 5% acetonitrile 3 min, to 50% in 2 min, to 85% in 15 min, held 3 min, 100 µL/min
Conditions: column: Zorbax Extend-C18 2.1 x 50 mm; eluents: water / acetonitrile, 0.1% formic acid
Summary of the method: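 Standards, all pure, were combined into mixtures of ~100 molecules and run at 100 μL/min on a Zorbax Extend-C18 column (2.1 × 50 mm, 1.8 μm) with water and acetonitrile, each containing 0.1% formic acid. A coupled quadrupole time-of-flight mass spectrometer operated in positive and negative ionization mode. Retention time values come from computationally picked adduct peaks, each inspected manually.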

SMILES	RP-LC retention time [s]
CCn1c(=O)c(N2CCC(NC(=O)NCc3ccccc3)CC2)nc2cccnc21	826
CC(C)c1nnc(-c2coc(S(=O)(=O)N3CCN(c4ccccn4)CC3)c2)o1	657
CCOC(=O)c1[nH]c2ccc(F)cc2c1NC(=O)CN(CC)CC	605
CN(C)c1ccc(C(=O)N2CCC(COc3ccc(C(=O)NC4CC4)cc3)CC2)cc1	779
O=C(Cn1cnc2nc3c(cc2c1=O)CCCC3)Nc1cccc2c1CCCC2	808
Cc1cccc(S(=O)(=O)N2CC3CN(C(=O)c4cnccn4)CC(C2)O3)c1	688
COc1ccc(F)cc1S(=O)(=O)NC1CCc2nnc(C3CC3)n2CC1 (stereo not drawn)	641
O=C(NCc1ccc(N2CCOCC2)nc1)c1ccc(Cl)s1	618
COc1ccc(CNC(=O)Cn2cnc3nc(N4CCC(C(=O)NC5CC5)CC4)sc3c2=O)cc1	666
O=C1CC(c2nc(-c3ccc(C(F)(F)F)cc3)no2)CN1c1ccc2c(c1)OCO2 (stereo not drawn)	1070
CCn1c(=O)sc2cc(S(=O)(=O)N3CCC(C(=O)Nc4ccc(F)cc4)CC3)ccc21	917
Nc1cc([N+](=O)[O-])ccc1N1C(=O)CCCC1=O	650
O=C(NCCN1CCC(Cc2ccccc2)CC1)c1ccc2c(c1)NC(=O)C1CCCCN21 (stereo not drawn)	693
Cc1nc2cc3c(cc2n1CC(=O)NCc1ccccc1Cl)OCCO3	645
COC(=O)c1cc(OCC(=O)NCc2ccc3c(c2)OCO3)c2cc(Cl)ccc2n1	827
COc1ccc2c(c1)C1(CCN(S(=O)(=O)c3ccc(NC(C)=O)cc3)C1)C(=O)N2 (stereo not drawn)	686
O=C(Nc1ccc2c(c1)OCCO2)N1CCCC1c1nc(-c2ccc(F)cc2F)no1 (stereo not drawn)	882
COc1cccc(-n2ccn3cc(-c4ccc5c(c4)OCO5)nc3c2=O)c1	775
CCN(CC)CCn1c(NCc2ccc(Br)cc2)nc2ccccc21	581
CCCCN(C)C(=O)Cn1nc(C)c2sc(-c3ccccc3)nc2c1=O	865
Cn1c(=O)c2ccn(CC(=O)N3CCN(c4ccc(F)cc4)CC3)c2n(C)c1=O	683
COc1cc(-n2c(=O)c3ccccc3n(Cc3ccccc3C#N)c2=O)cc(OC)c1OC	805
O=C(Cc1cc(-c2cc3ccccc3o2)on1)NCCC1=CCCCC1	1060
Cc1ccc(NS(=O)(=O)c2cc(-c3[nH]ncc3C(=O)N(C)C)oc2C)c(C)c1	739
COC(=O)C1=CN(c2ccc(OC)cc2)c2cc(F)ccc2S1(=O)=O	844
Cc1ccc(-c2nc3cnccn3c2Nc2ccc3c(c2)OCCO3)cc1	841
COC1C(=O)N(c2cccc(F)c2)C12CCN(C(=O)Nc1ccccc1)CC2 (stereo not drawn)	878

SMILES	RP-LC retention time [s]
Cc1ccc(CNC(=O)CCCn2c3ccccc3c3cnn(C)c(=O)c32)o1	814
Cc1nn(CC(=O)NCc2ccc(F)cc2F)c(=O)c2nc(-c3ccccc3)sc12	914
Cc1ccccc1-c1noc(Cn2c(=O)n(Cc3ccco3)c(=O)c3ccccc32)n1	1100
O=S(=O)(c1ccc(Cl)c(-c2nnc(-c3ccccc3)o2)c1)N1CCN(c2ccccn2)CC1	802
CCCOc1nc2ccccc2nc1N1CCCC(C(=O)Nc2cc(Cl)ccc2OC)C1 (stereo not drawn)	611
O=C(NC1CC1)[C@@H]1C[C@H](Oc2cccnc2)CN1C(=O)c1cccs1	574
Cc1sc(-c2noc(C3CCC3)n2)cc1S(=O)(=O)N1CCC(C(=O)N2CCCCCC2)CC1	1180
O=C(N[C@H](Cc1ccccc1)C(=O)NCc1cscn1)c1ccccc1	738
COc1ccc(-c2cc(C)no2)cc1S(=O)(=O)N1CCN(c2ccccn2)CC1	651
Cc1nnc(C2CCCN(C(=O)c3cc(-c4ccc5c(c4)OCO5)n[nH]3)C2)s1 (stereo not drawn)	654
CCOC(=O)C1CCN(CC(=O)Nc2oc3ccccc3c(=O)c2-c2ccccc2)CC1	586
Cc1nc(OCC(=O)Nc2ccc(F)cc2F)c2ccccc2n1	742
COc1cc(OC)c(OC)cc1CC1C(=O)Nc2ccccc21 (stereo not drawn)	770
Cc1sc(-c2cc(C(F)(F)F)on2)cc1S(=O)(=O)N1CCN(C2CCCCC2)CC1	857
CN(CCc1noc(-c2ccc(Cl)cc2)n1)C(=O)NCc1ccco1	868
CCc1ccccc1NC(=O)COc1nc(C)nc2ccccc12	747
Cc1cc(C(F)(F)F)nn1CC(=O)NCC1Cn2cccc2CN1C (stereo not drawn)	726
CCSc1nnc(-c2nn(C)c3c2CN(S(=O)(=O)c2ccccc2Cl)CC3)n1CC	948
CCOCC(=O)N1CCC(Oc2nccnc2N2CCOCC2)C1 (stereo not drawn)	640
CC(C)Cn1c(=O)c(N2CCN(C(=O)Cc3ccsc3)CC2)nc2ccncc21	653
Cn1nc(C(=O)N2CCCC2)c2c1CCN(C(=O)CCC(=O)NCCN1CCCCCC1)C2	586
Cc1nc(-c2csc(S(=O)(=O)N3CCCC(C(=O)Nc4cc(F)ccc4F)C3)c2)no1 (stereo not drawn)	996
O=C(Nc1nnc(C2CC(=O)N(c3ccccc3)C2)o1)c1ccccc1Cl (stereo not drawn)	807
c1ccc(-c2nnc(-c3ccc(-n4ccnc4)nc3)o2)cc1	639
CCOCCCNC(=O)c1nnc(-c2ccc(S(=O)(=O)N3CCCCC3)cc2)o1	762
Cn1nccc1C(=O)N1CCN(S(=O)(=O)c2ccc3c(c2)oc(=O)n3C)CC1	679
COc1ccc(Cl)cc1NC(=O)c1nc2nc(C)cc(C(F)F)n2n1	959

Other lines, results leading:

RP-LC retention time [s]	SMILES
820	Cc1ccc(NC(=O)N2CCCN(c3ccc(=O)n(-c4ccccc4)n3)CC2)cc1
697	Cc1ccc2nc(-c3ccccc3)c(Nc3ccc4c(c3)OCCO4)n2c1
717	O=C(Cn1cc(-c2ccccc2)c2ncnc(N3CCOCC3)c21)N1CCN(c2ccccc2)CC1
896	O=C(Nc1ccccc1)C1CCN(S(=O)(=O)c2cc(C(=O)N3CCCCCC3)cs2)CC1
827	O=C(Nc1cc(-c2ccccn2)no1)C1CCCCC1
952	Cc1cccc2c(=O)n(C3CCN(C(=O)Nc4cccc(C(F)(F)F)c4)CC3)cnc12
935	CCOc1ccccc1NC(=O)Cn1nc2c(Oc3ccccc3C)nccn2c1=O
1010	CSc1ccc(CNC(=O)C2CCCN(c3ccc(=O)n(-c4ccc(C)c(Cl)c4)n3)C2)cc1 (stereo not drawn)
571	CN(C)c1cc(N2CCCC(NC(=O)c3cccn3C)C2)ncn1 (stereo not drawn)
608	Cc1ccc(F)cc1S(=O)(=O)N1CCn2c(nnc2C2CCN(C(C)C)C2)C1 (stereo not drawn)
850	O=C(Nc1ccc2c(c1)OCCO2)C(=O)c1cn(CC(=O)N2CCOCC2)c2ccccc12
580	Cc1noc([C@@H]2CN(Cc3ccc(F)cc3F)C[C@H]2CO)n1
578	O=C(Nc1c(-c2ccc(F)cc2)nc2ccccn12)C1CC1
609	CN(C)CCNCc1ccc(-c2ccc(Cl)cc2Cl)o1
625	COc1ccc(C(=O)Nc2c(-c3ccc(F)cc3)nc3ccccn23)cc1OC
582	Cc1noc(C)c1CN1CCC(NC(=O)Cc2ccc(F)cc2)CC1
674	COC(=O)Cn1c(C2CC(=O)N(c3ccccc3OC)C2)nc2ccccc21 (stereo not drawn)

RP-LC retention time [s]	SMILES
850	CC1=C(c2cccc(Cl)c2)S(=O)(=O)N=C1N1CCCN(C(=O)C2CCC2)CC1
801	CC(C)CC(=O)N1CCC(COc2ccc(C(=O)NC(C)C)cc2)CC1
599	COc1ccc(C(C)NC(=O)c2cc(NC(C)=O)cc3nc(C)ccc23)cc1OC (stereo not drawn)
816	CC1Oc2ccc(S(=O)(=O)N3CCC(C(=O)NCc4ccccc4Cl)CC3)cc2NC1=O (stereo not drawn)
740	Cc1ccc(NC(=O)Cn2ccc3sccc3c2=O)cc1C
639	COc1ccc(-c2cn3c(CC(=O)N4CCN(c5ncccn5)CC4)csc3n2)cc1OC
727	O=C(NCc1ccc(OC(F)(F)F)cc1)C1CCCN(c2nnc3ccccn23)C1 (stereo not drawn)
726	CSc1ccc(NC(=O)Nc2cccc(-c3ccc(N4CCOCC4)nn3)c2)cc1
619	COCCOCC(=O)N1CCC(c2noc(C3CC3)n2)C1 (stereo not drawn)
735	Cc1cccc(NC(=O)C2CCCN(c3cc(=O)n(C)c(=O)n3C)C2)c1 (stereo not drawn)
559	CNC(=O)Nc1ccc2nc3n(c(=O)c2c1)CCCC3
702	Cc1nn(C(C)C(=O)NCCCN2CCCCCC2)c(=O)c2c1sc1ccccc12 (stereo not drawn)
723	O=C(Cn1cccn1)N1CC(F)(F)C[C@H]1c1nc(C2CC2)no1
650	CCOc1nccnc1N1CCC(NC(=O)c2ccc(C#N)cc2)C1 (stereo not drawn)
812	CC(C)CN1C(=O)c2cccn2CC1C(=O)NC1CCCCCC1 (stereo not drawn)
652	COc1ccc(S(=O)(=O)N2CCC(C(=O)N[C@@H](C)C(=O)O)CC2)cc1
580	Cc1ccccc1S(=O)(=O)N1CCCC(CCC(=O)NCC2CCCCC2)C1 (stereo not drawn)
